In US9403866B2, “Compositions and methods for increasing telomerase activity” (Telomerase Activation Sciences, Inc., priority 2009, dated 2016):
Where two headings read alike, the source gives them in different places.

Experiments:
Human brain pericytes = assay: Tube formation of human brain pericytes on Matrigel; type: cell-based; settings: 0.5 μM in water, 24 hr then 6 hr on Matrigel, p<0.15
Description: Human brain pericytes (donor) at PD 10 were cultured for a total of 30 hr in 0.5 μM compound 7 dissolved in water. Telomerase activity and tube formation were analyzed.
Brain pericytes were first cultured for 24 hr in a T-75 flask in 0.5 μM compound 7, and then split onto a 24 well plate coated with Matrigel in order to promote tube formation (done in triplicate). 0.5 μM compound 7 was again included in the medium. After 6 hr the samples were fixed and branch points were counted using a microscope, 5 fields/well, with 3 wells/condition. Compound 7 treated pericytes had 1.9 times more branch points than the control (p<0.15).

[1] = Plasma levels and bioavailability in mice; type: in vivo, male C57BL/6 mice; settings: male, C57BL/6, mouse, read-out: Bioavailability % F
Description: The plasma levels of a compound following a single intravenous, oral, intra-peritoneal, or sub-cutaneous administration in male C57BL/6 mice was determined. Plasma samples were collected and used to determine the plasma concentration of the compound and metabolites. In addition tissue samples, including whisker samples, and peripheral blood mononuclear cells (PBMC) cells were collected for telomerase activity analysis.
[…] mice were divided into treatment groups. The mice were provided ad libitum SLAC-MO1 #W080208 (Shanghai Laboratories Animal Center, Shanghai, China) throughout the in-life portion of the study with the exception of the overnight fasting period prior to oral dosing. Water was available ad libitum.
(§1) Body weights were taken on the day of dose administration. Dose volume was determined based on individual body weight taken on day of dosing.
Blood samples (approximately 300 μL) were collected via cardiac puncture or via retro-orbital puncture after anesthesia into tubes containing K2-EDTA anticoagulant and 1 mg/ml NaF at the various time points after dosing. Blood was stored on ice and then plasma separated via centrifugation (8000 rpm×6 minutes). The plasma was stored at […] until LC-MS/MS analysis.

telomerase [2] = molecular target: T1, telomerase (Homo sapiens, UniProt O14746); assay: Keratinocyte cell/TRAP assay (HEKneo-P cells); type: cell-based; design: host or cells: HEKneo-P (pooled neonatal human epidermal keratinocytes); settings: for EC50: telomerase activation; for Activity in in vitro HEK assay: 24 hr, 0.01 to 10 μM, vs vehicle control at peak of full dose curve
T1 sequence (O14746 whole entry): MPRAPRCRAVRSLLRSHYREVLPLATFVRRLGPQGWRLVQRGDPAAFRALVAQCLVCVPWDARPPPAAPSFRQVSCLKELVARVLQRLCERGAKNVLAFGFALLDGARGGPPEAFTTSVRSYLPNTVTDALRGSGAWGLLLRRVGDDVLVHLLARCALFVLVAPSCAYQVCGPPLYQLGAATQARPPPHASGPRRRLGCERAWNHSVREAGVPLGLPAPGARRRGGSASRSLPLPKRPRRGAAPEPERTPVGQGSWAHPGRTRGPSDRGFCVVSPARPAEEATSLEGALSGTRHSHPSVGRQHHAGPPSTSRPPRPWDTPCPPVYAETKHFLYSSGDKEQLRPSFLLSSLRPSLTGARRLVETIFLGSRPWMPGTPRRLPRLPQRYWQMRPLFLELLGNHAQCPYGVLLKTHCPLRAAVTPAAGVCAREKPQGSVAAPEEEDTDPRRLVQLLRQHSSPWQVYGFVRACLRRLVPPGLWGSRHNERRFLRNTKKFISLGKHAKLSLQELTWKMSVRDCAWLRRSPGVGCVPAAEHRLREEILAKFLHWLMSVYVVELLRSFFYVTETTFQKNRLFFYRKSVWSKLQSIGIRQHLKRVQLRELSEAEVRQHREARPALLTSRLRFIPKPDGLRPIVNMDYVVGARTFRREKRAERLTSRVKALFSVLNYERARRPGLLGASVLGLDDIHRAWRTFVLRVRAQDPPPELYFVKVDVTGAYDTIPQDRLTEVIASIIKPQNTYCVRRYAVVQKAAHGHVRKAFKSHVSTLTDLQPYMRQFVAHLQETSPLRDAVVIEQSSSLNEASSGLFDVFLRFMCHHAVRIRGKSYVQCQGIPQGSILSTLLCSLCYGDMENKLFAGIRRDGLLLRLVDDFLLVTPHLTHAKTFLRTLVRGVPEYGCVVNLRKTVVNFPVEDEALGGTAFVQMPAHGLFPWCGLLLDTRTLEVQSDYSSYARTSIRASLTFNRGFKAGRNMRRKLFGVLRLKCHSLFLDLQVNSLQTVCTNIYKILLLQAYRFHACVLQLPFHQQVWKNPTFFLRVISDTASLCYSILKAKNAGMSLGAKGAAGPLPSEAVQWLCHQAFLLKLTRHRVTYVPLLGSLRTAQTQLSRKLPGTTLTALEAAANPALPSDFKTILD
Description: Harley et al., U.S. Pat. […] Harley et al., U.S. Pat. […] Non-treatment control (NT) was also included. […]

[3] = Plasma levels and bioavailability in rats; settings: male, Sprague Dawley, rat, in vivo, po, 10 mg/kg
Description: The plasma levels of a compound following a single intravenous and oral administration in carotid artery-cannulated male Sprague Dawley rats was determined. Plasma samples were collected and used to determine the plasma concentration of the compound and metabolites. In addition tissue samples, including whisker samples and PBMC cells were collected for telomerase activity analysis.
Carotid artery-cannulated male Sprague Dawley rats were divided into treatment groups according to Table 6. The rats were provided ad libitum SLAC-MO1 # YY080208 (Shanghai Laboratories Animal Center, Shanghai, China) throughout the in-life portion of the study with the exception of the overnight fasting period prior to oral dosing. Water was available ad libitum.
The compounds were dissolved in 2% EtOH/98% water to yield a final concentration of 2.5 mg/ml and 1 mg/ml for both intravenous and oral administration, respectively. The concentration of each compound was confirmed by HPLC analysis.
as §1
Blood samples (approximately 250 μL) were collected via cannulae into tubes containing K2-EDTA anticoagulant and 1 mg/ml NaF at the various time points. Blood was stored on ice and then plasma separated via centrifugation (8000 rpm×6 minutes). The plasma was stored at […] until LC-MS/MS analysis.
Percentage of bioavailability was calculated.

[4] = design: species or system male Beagle dogs; settings: male, Beagle, dog, in vivo, po, 10 mg/kg
Description: The plasma level of a compound following a single intravenous and oral administration in male Beagle dogs was determined. Plasma samples were collected and used to determine the plasma concentration of the compound and metabolites. In addition tissue samples, including whisker samples and PBMC cells were collected for telomerase activity analysis.
Male Beagle dogs were divided into treatment groups according to Table 5. The dogs were provided ad libitum SLAC-MO1 #W080701 (Shanghai Laboratories Animal Center, Shanghai, China) throughout the in-life portion of the study with the exception of the overnight fasting period prior to oral dosing. Water was available ad libitum.
The compounds were dissolved in 2% EtOH/98% water […] to yield a final concentration of 2.5 mg/ml and 1 mg/ml for both intravenous and oral administration, respectively. The concentration of each compound was confirmed by HPLC analysis.
Doses were administered intravenously via the left femoral vein and then by oral dosing one week later. Body weights were taken on the day of dose administration. Dose volume was determined based on individual body weight taken on day of dosing.
Blood samples (approximately 250 μL) were collected via right femoral vein into tubes containing K2-EDTA anticoagulant and 1 mg/ml NaF at appropriate time points. Blood was stored on ice and then plasma separated via centrifugation (8000 rpm×6 minutes). The plasma was stored at […] until LC-MS/MS analysis.

telomerase [5] = molecular target: T1, telomerase; design: host or cells: peripheral blood mononuclear cells; settings: reported by Franzese et al.; cited from earlier work
telomerase [6] = molecular target: T1, telomerase; assay: In vitro model of fibrosis: TGFβ and bleomycin treated SAECs, gel TRAP assay; type: cell-based; settings: bleomycin 10 ug/ml, TGFβ 10 ng/ml
Description: In addition a portion of the cells were treated with bleomycin (10 ug/ml) and TGFβ (10 ng/ml). Forty-eight hours after the second treatment, cells were washed and lysed with M-Per lysis buffer. A gel TRAP assay was run to evaluate the telomerase activity in the cells.

| Compound | EC50 (telomerase [2]) | Bioavailability % F [3] | Max fold increase of activity (telomerase [2]) | Activity in in vitro HEK assay (telomerase [2]) | also measured |
| --- | --- | --- | --- | --- | --- |
| CC(C)C(N)C(=O)OC1CC2C3(C)CC(O)C(C4(C)CCC(C(C)(C)O)O4)C3(C)CCC23CC32CCC(OC(=O)C(N)C(C)C)C(C)(C)C12 (stereo not drawn) [Compound 7, 2-(L)-Amino-3-methyl-butyric acid 6α-(2-amino-3-methyl-butyryloxy)-16β-dihydroxy-17-[5-(1-hydroxy-1-methyl-ethyl)-2-methyl-tetrahydro-furan-2-yl]-4,4,13,14-tetramethyl-tetradecahydro-cyclopropa[9,10]cyclopenta[a]phenanthren-3β-yl ester] | 41 to 50 nM | 44% |  |  | branch points relative to the control (Human brain pericytes): 1.9 times; bioavailability ([1]; PO, 10 mg/kg, 2% EtOH/98% water): 25%; bioavailability ([1]; SC, 10 mg/kg, 2% EtOH/98% water): 61% |
| CC(C)C(N)C(=O)OC1CC2C3(C)CC(O)C(C4(C)CCC(C(C)(C)O)O4)C3(C)CCC23CC32CCC(O)C(C)(C)C12 (centres unmarked) [Compound 12] | 28 to 32 nM | 27% |  |  | bioavailability ([1]; IP, 5 mg/kg, 2% EtOH/98% water): 42%; bioavailability ([1]; PO, 5 mg/kg, 2% EtOH/98% water): 8% |
| CCC(C)C(N)C(=O)OC1CCC23CC24CCC2(C)C(C5(C)CCC(C(C)(C)O)O5)C(O)CC2(C)C4CC(O)C3C1(C)C (centres unmarked) [Compound 14] | 9 to 21 nM | 93% |  |  | Bioavailability % F [4]: 55%; bioavailability ([1]; PO, 10 mg/kg, 5% PEG400/5% solutol HS-15/90% water): 42% |
| CC(C)[C@H](N)C(=O)O[C@H]1CC2C3(CC[C@]4(C)[C@@H]([C@@]5(C)CC[C@@H](C(C)(C)O)O5)[C@@H](O)C[C@@]24C)C[C@@]32CCC(=O)C(C)(C)[C@H]12.Cl (stereo partly drawn) [Compound 30, 2-(L)-Amino-3-methyl butyric acid 16β-hydroxy-17-[5-(1-hydroxy-1-methyl-ethyl)-2-methyl-tetrahydro-furan-2-yl]-4,4,13,14-tetramethyl-3-oxo-tetradecahydro-cyclopropa[9,10]cyclopenta[a]phenanthren-6α-yl ester] |  |  | 3.5 fold | + (telomerase activation is 2 fold or more in comparison with vehicle control at the peak of the full dose curve.) |  |
| CCC(C)[C@H](N)C(=O)OC1CC2C3(C)CC(O)C(C4(C)CCC(C(C)(C)O)O4)C3(C)CCC23CC32CCC(OC(=O)[C@@H](N)C(C)CC)C(C)(C)C12 (some centres unmarked) [Compound 32] |  |  | 3 fold | + (telomerase activation is 2 fold or more in comparison with vehicle control at the peak of the full dose curve.) | concentration at Max fold increase of activity (telomerase [2]): 0.37 to 1.1 µM |
| CC(C)[C@H](N)C(=O)OC1CC2(C)C3CC(O)C4C(C)(C)C(O)CCC45CC35CCC2(C)C1C1(C)CCC(C(C)(C)O)O1 (stereo partly drawn) [Compound 36, 2-(L)-Amino-3-methyl-butyric acid 3β,6α-dihydroxy-16β-hydroxy-17-[5-(1-hydroxy-1-methyl-ethyl)-2-methyl-tetrahydro-furan-2-yl]-4,4,13,14-tetramethyl-tetradecahydro-cyclopropa[9,10]cyclopenta[a]phenanthren-16β-yl ester] |  |  | 3.0 fold | + (telomerase activation is 2 fold or more in comparison with vehicle control at the peak of the full dose curve.) | concentration at Max fold increase of activity (telomerase [2]): 0.01 to 0.12 µM |
| CC(C)(C)NC(=O)[C@@H]1C[C@@H]2CCCC[C@@H]2CN1C[C@@H](O)[C@H](Cc1ccccc1)NC(=O)[C@H](CC(N)=O)NC(=O)c1ccc2ccccc2n1 [Saquinavir] |  |  |  |  | telomerase activity in peripheral blood mononuclear cells (telomerase [5]): increased telomerase activity |
| bleomycin |  |  |  |  | effect on SAEC telomerase activity (telomerase [6]): suppressed SAEC telomerase activity |
